target: T1, human potassium Kv1.3 (Homo sapiens, UniProt P22001); test: Electrophysiological examination (whole-cell patch-clamp) of the Kv1.3-mediated potassium current in CHO cells; assay type: cell-based; settings: 10 μM example compound 1, time course
T1 construct: expressed in transfected cells; host or cells: stably transfected cells grown in serum-free medium for CHO cells (CHO inferred from the medium)
Experimental: 1. Electrophysiological Examination of Test Compounds on the KV1.3-Mediated Potassium Current
cDNA coding for the human potassium Kv1.3 was cloned into a standard vector. A C-terminal epitope-tag was introduced via PCR. The plasmid was sequenced and subsequently introduced into cells and a clonal cell line was established. Expression of protein was analyzed by means of immunofluorescence using antibodies directed against the epitope-tag.
Experiments were performed in CHO cells stably expressing the potassium Kv1.3 potassium channel. […]
Patch-clamp experiments were performed in the voltage-clamp mode (Hamill et al., 1981) and whole-cell currents were recorded. Patch pipettes were pulled from borosilicate glass tubes. Current signals were amplified and digitized by an EPC patch-clamp amplifier (HEKA-Electronics, Lambrecht, Germany), stored and analyzed on a personal computer using the Pulse/Pulsefit software (HEKA, Lambrecht, Germany). Experiments were conducted at room temperature.
For investigating effects and reversibility of a test compound on the Kv1.3 potassium channel, CHO cells were clamped at a holding potential (HP) of −80 mV. The following stimulation protocol (scheme 1) was applied successively and the induced currents have been recorded: […]
The application protocol of the test compound is depicted in scheme 2. […] Nonspecific current reduction was calculated and serves for correction procedures during data analysis. […] Effect of the test compound was analyzed between stimulus nos. […]
The appropriate experiment was selected from the data tree in the Pulse software. […] The leak current amplitude during the prepulse to −90 mV and the peak current amplitude of the test-pulse to +40 mV were measured by placing the cursors on the oscilloscope screen (FIG. 3). […]
FIG. 1: Kv1.3-mediated potassium current. […] The two cursors on the right indicate the range of the test pulse, where the peak current amplitude was evaluated (205-230 ms of the test pulse to +40 mV). The two cursors on the left indicate the area where the mean leak current was evaluated (100-140 ms of the test pulse to −90 mV). […]

T1 sequence (P22001 whole entry): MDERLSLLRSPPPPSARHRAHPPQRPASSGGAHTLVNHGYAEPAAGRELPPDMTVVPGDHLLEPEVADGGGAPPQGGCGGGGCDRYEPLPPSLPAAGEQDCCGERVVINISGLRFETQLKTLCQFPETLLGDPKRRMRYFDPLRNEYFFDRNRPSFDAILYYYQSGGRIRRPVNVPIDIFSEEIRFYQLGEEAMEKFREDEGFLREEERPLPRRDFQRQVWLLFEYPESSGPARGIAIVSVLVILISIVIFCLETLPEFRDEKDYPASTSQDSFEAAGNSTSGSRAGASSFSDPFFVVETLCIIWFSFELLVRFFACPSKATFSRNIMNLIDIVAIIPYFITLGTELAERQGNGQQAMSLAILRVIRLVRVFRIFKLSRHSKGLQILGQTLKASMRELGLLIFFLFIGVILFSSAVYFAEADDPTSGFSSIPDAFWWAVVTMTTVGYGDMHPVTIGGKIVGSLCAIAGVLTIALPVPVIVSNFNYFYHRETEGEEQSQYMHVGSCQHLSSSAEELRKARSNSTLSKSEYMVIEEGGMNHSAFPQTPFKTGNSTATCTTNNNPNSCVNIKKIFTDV

Question: With `CN=C(NS(=O)(=O)c1ccc(Cl)cc1)N1C[C@H](c2ccccc2)C(c2ccc(Cl)cc2)=N1` [example compound 1] as the compound, how does the “Effect on current amplitude (in words)” value read?
Answer: significant current reduction

same assay, conditions: in the presence of 0.1% BSA; fit of equation (4)

Question: For `CN=C(NS(=O)(=O)c1ccc(Cl)cc1)N1C[C@H](c2ccccc2)C(c2ccc(Cl)cc2)=N1` [example compound 1], which “Hill coefficient nH” value is on record?
Answer: 0.72±0.22

same assay, conditions: over the tested concentrations

Question: With `CN=C(NS(=O)(=O)c1ccc(Cl)cc1)N1C[C@H](c2ccccc2)C(c2ccc(Cl)cc2)=N1` [example compound 1] as the compound, how does the “Effect on outward Kv1.3-mediated current amplitudes (in words)” value read?
Answer: reduced in a concentration-dependent manner

target: T1, human potassium Kv1.3; test: Potassium Kv1.3 autopatch electrophysiology method, percentage charge inhibition; assay type: cell-based; settings: concentration not given (compounds made up at 1 μM and 10 μM)
Experimental: 2. Electrophysiological Examination of Test Compounds on the Kv1.3-Mediated Potassium Current (Potassium Kv1.3 Autopatch Electrophysiology Method)
In another set of experiments, the inhibition of the potassium Kv1.3 channel has been measured.
Cells stably transfected with cDNA for human potassium Kv1.3 (in pcDNA3.1) were grown in Ex-cell 302 serum-free medium for CHO cells, supplemented with 10 μl/ml [100×] glutamine, 500 μg/ml G418, and 1% HT supplement (50×, hypoxanthine and thymidine). The cells were cultured in 350 ml spinner (Techne) spun at 80 rpm, at 37° C. in a water-saturated 5% CO2 incubator. The day of the preparation an aliquot of cells was 5 times diluted in fresh media and counted with a glass counting chamber type Malassez. Then six tubes of 10 ml were prepared at 6×10^6 c/ml. The tubes were then placed at 4° C. until their use.
The external bathing solution contained (in mM): 150 NaCl, 10 KCl, 1 MgCl2, 3 CaCl2 and 10 HEPES. The pH was adjusted to 7.4 with NaOH. Patch pipettes were filled with a pipette solution of composition (in mM): 100 K-Gluconate, 20 KCl, 1 MgCl2, 1 CaCl2, 10 HEPES, 11 EGTA, 5 ATP-Na2 and 2 Glutathione. The pH was adjusted to 7.2 with KOH. Using fresh 100 ml bathing solution, 0.05% BSA re-suspension solution (0.05 g BSA/100 ml bather) was prepared.
Compounds were dissolved in DMSO (100%) and made up in the external bather at concentrations of 1 μM and 10 μM. All experiments were conducted at room temperature.
Two tubes of cell suspension were centrifuged at 1000 rpm for 4 minutes at room temperature. 10 ml of supernatant was carefully aspirated and discarded from each tube, with care being taken not to aspirate the cell pellet sitting at the bottom of the tube. The cell pellet of each tube was broken-up by gentle manual agitation of the tube. 600 μl of re-suspension solution was added to the cell pellet, followed by a gentle trituration step to re-suspend the cells. Once re-suspended, 600 μl of solution per tube was removed from each tube, such that 1.2 ml of cell suspension was obtained in total and placed in a temperature-controlled cell hotel, set at either 4° C. or dew point. Cells were maintained in suspension in the hotel through gentle trituration every 30 s via an automatic cell suspension system.
Harvard borosilicate capillary glass (GC1507F-10, […], supplied in 100 mm lengths) was cut down to 24 mm lengths using a Dagen capillary cutter. Short (13 mm) patch pipettes were pulled using a 2-stage pull on a specially adapted DMZ pipette puller (Zeitz Instruments). Patch pipettes typically have resistances of 2.3-3.5 MΩ. As the patch pipettes were pulled in batches, pipette tip resistance was measured every tenth pipette using a Tenma meter in order to maintain consistency of tip resistance. Pulled pipettes were stored in Petri dish before filling.
Each pipette was fully back-filled (from the tip to the end) using the internal pipette solution and the pipette tip was dipped in Sigmacote (Sigma). The pipette was then precisely inserted, tip first, into a pipette holder using a custom-made, pneumatic insertion rig, with the blunt end of the patch pipette sitting proud of the bottom of the pipette holder.
Whole cell patch-clamp recordings (WCRs) were made using the AP2, which incorporates an EPC9 or EPC10 amplifier (HEKA, Germany) under control of Pulse software (v8.54 or v8.76, HEKA, Germany), the patch plate contact fixture, a Gilson autosampler for cell delivery (the cell sampler), a Gilson autosampler for drug preparation (the auto-sampler), the drug application system (DAS), a feedback-controlled suction device for enabling high resistance GΩ seals to be formed for the whole cell recording mode to be attained, a cell re-suspension system, a temperature-controlled cell hotel, a vacuum line and associated pumps for applying suction and for draining the patch plate wells of bather.
Under control of the AP2 software, automated patch-clamping was initiated. […]

Question: For `CNC(=NS(=O)(=O)c1ccc(Cl)cc1)N1CC(c2cccnc2)C(c2ccc(Cl)cc2)=N1` (stereo not shown), which “Inhibition of the Potassium Kv1.3 channel (%)” value (shortened to “Inhibition … (%)”) is on record?
Answer: 88.7%

Question: Which “Inhibition … (%)” value does the source give for `CON/C(=N\S(=O)(=O)c1ccc(Cl)cc1)N1C[C@H](c2cccc(F)c2)C(c2ccc(Cl)cc2)=N1` here?
Answer: 76.0%

Question: With `CNC(=NS(=O)(=O)N(C)C)N1CC(c2cccc(F)c2)C(c2ccc(Cl)cc2)=N1` (stereo not shown) as the compound, how does the “Inhibition … (%)” value read?
Answer: 88.1%

Question: With `CN(C)CCNC(=NS(=O)(=O)N1CCCCC1)N1CC(c2ccccc2)C(c2ccc(Cl)cc2)=N1` (stereo not shown) as the compound, how does the “Inhibition … (%)” value read?
Answer: 58.4%

Question: With `CN1CCC(CNC(=NS(=O)(=O)c2ccc(Cl)cc2)N2CC(c3ccccc3)C(c3ccc(Cl)cc3)=N2)C1` (stereo not shown) as the compound, how does the “Inhibition … (%)” value read?
Answer: 96.2%

Question: With `O=S(=O)(N=C(NCCF)N1CC(c2ccccc2)C(c2ccc(Cl)cc2)=N1)c1ccc(Cl)cc1` (stereo not shown) as the compound, how does the “Inhibition … (%)” value read?
Answer: 77.1%

Question: For `CNC(=NS(=O)(=O)N1CCC(O)CC1)N1CC(c2ccccc2)C(c2ccc(Cl)cc2)=N1` (stereo not shown), which “Inhibition … (%)” value is on record?
Answer: 92.8%

Question: With `CN[C@@H](Cc1c[nH]c2ccccc12)C(=O)N1CC(c2ccccc2)C(c2ccc(Cl)cc2)=N1` (stereo partly shown) as the compound, how does the “Inhibition … (%)” value read?
Answer: 87.8%

Question: With `CCN(CC)C(=O)c1cn(-c2ccc(Cl)cc2)c(-c2ccc(Cl)cc2Cl)n1` as the compound, how does the “Inhibition … (%)” value read?
Answer: 76.2%

Question: Which “Inhibition … (%)” value does the source give for `CC1=Nc2ccc(Cl)cc2S(=O)(=O)N1` [Diazoxide, reference compound] here?
Answer: 46.5%

Question: With `CCCCCCC(C)(C)c1cc(OC)c([C@H]2C=C(CO)[C@H]3C[C@@H]2C3(C)C)c(OC)c1` [HU-308, reference compound] as the compound, how does the “Inhibition … (%)” value read?
Answer: 81.2%

Question: For `CC1(NC2=NS(=O)(=O)c3sc(Cl)cc3N2)CC1` [NN414, reference compound], which “Inhibition … (%)” value is on record?
Answer: 45.1%

Question: For `Cc1c(C(=O)c2cccc3ccccc23)c2cccc3c2n1[C@H](CN1CCOCC1)CO3` [R(+)-WIN55212-2, reference compound], which “Inhibition … (%)” value is on record?
Answer: 81.5%

Question: Which “Inhibition … (%)” value does the source give for `Cc1c(C(=O)NN2CCCCC2)nn(-c2ccc(Cl)cc2Cl)c1-c1ccc(Cl)cc1` [Rimonabant, reference compound] here?
Answer: 89.2%

Question: For `CCc1c(C(=O)NN2CCCCC2)nn(-c2ccc(Cl)cc2Cl)c1-c1ccc(Br)cc1` [SR-147778, reference compound], which “Inhibition … (%)” value is on record?
Answer: 63.7%

test system: not listed separately; test: Solubility as noted during the Kv1.3 patch-clamp experiments; settings: bath solution; 0.1% BSA used to overcome it

Question: Which “Solubility (in words)” value does the source give for `CN=C(NS(=O)(=O)c1ccc(Cl)cc1)N1C[C@H](c2ccccc2)C(c2ccc(Cl)cc2)=N1` [example compound 1] here?
Answer: low solubility

— patent publication US20070191357A1, “METHODS OF USING POTASSIUM CHANNEL INHIBITING COMPOUNDS” (priority 2005, published 2007)
